This note sets out measurements from US10674732B2, “Anti-phytopathogenic compositions” (The State of Israel, Ministry Of Agriculture & Rural …, priority 2015, dated 2020).

In brackets after ≈: the same amount, converted by molar mass.

For the first assay, the system named is Spiroplasma melliferum. The assay can be described thus: Antagonistic test of the bacteria's supernatant (time to color change of phenol red medium). The note with it: 0.5 μg/ml.
Regarding `CN(C)[C@@H]1C(O)=C(C(N)=O)C(=O)[C@@]2(O)C(O)=C3C(=O)c4c(O)cccc4[C@@](C)(O)[C@H]3[C@H](O)[C@@H]12` [oxytetracycline], the “Inhibition index (ratio of days to color change to the time required in the positive control)” value came to 2.3.

Another assay relates to Spiroplasma melliferum. Kind of assay: Microplate test of spiroplasma growth (OD=595 nm). The note with it: 1 mM, single compound. The format is cell-based. The method, then:
For this reason, the potential inhibition of these substances was tested on Spiroplasma melliferum, a cultivable Mollicute. The experiment was conducted in a 96-wells microplate. 150 μl fresh broth containing phenol red and 4 μl spiroplasma cells (app. 10^5 cells) were added to each well. […] The microplate was incubated for two days at 28° C. and the color of the medium was scored by a plate-reader (Multiskan EX, Thermo scientific, Waltham, Mass. USA) at OD=595 nm.
With `O=Cc1ccnc2ccccc12` [Quinolinecarboxaldehyde, 4-Quinolinecarboxaldehyde], the spiroplasma growth inhibition result was “inhibited”. Still for that read-out and setting: then `c1cc2cnccn2c1` [Pyrrolo[1,2-a]pyrazine], with “at 2 mM only”.

Still in this assay, the particulars now being: 2 mM, single compound.
As to `O=Cc1ccnc2ccccc12` [Quinolinecarboxaldehyde, 4-Quinolinecarboxaldehyde], the spiroplasma growth inhibition result is reported as “inhibited”. The same measure, in the same setting: then `c1cc2cnccn2c1` [Pyrrolo[1,2-a]pyrazine], with “inhibit”.

The assay is the same for the next values; noted with them: Spiroplasma melliferum, 48 h; two days at 28° C., FIG. 9; read-out: minimum inhibitory concentration (MIC).
For the compound `CN(C)[C@@H]1C(O)=C(C(N)=O)C(=O)[C@@]2(O)C(O)=C3C(=O)c4c(O)cccc4[C@@](C)(O)[C@H]3[C@H](O)[C@@H]12` [oxytetracycline], the MIC was 350 µM (≈ 161 µg/mL).

The same assay, now with this note: concentrations examined (2-0.02 mM), single compound.
Regarding `O=Cc1ccc(CO)o1` [Hydroxymethyl-2-furaldehyde, 5-Hydroxymethyl-2-furaldehyde], the spiroplasma growth inhibition entry is given as “No inhibition”.

Staying with this assay, now noted: two days at 28° C.
`O=Cc1ccnc2ccccc12` [Quinolinecarboxaldehyde, 4-Quinolinecarboxaldehyde]: the “minimum inhibitory concentration (MIC) compared with reference oxytetracycline” value is “higher than the reference antibiotics”.

The test system of the next assay is DLB. The assay can be described thus: DLB antibiotic susceptibility test. Type of assay: cell-based, Dyella-like bacterium.
Conditions: not given
Consider `CC1(C)S[C@@H]2[C@H](NC(=O)[C@H](N)c3ccc(O)cc3)C(=O)N2[C@H]1C(=O)O` [amoxycillin], for which the Inhibition cycle diameter was determined as 10 mm.

Compound `NCC[C@H](O)C(=O)N[C@@H]1C[C@H](N)[C@@H](O[C@H]2O[C@H](CN)[C@@H](O)[C@H](O)[C@H]2O)[C@H](O)[C@H]1O[C@H]1O[C@H](CO)[C@@H](O)[C@H](N)[C@H]1O` [amikacin] registered an Inhibition cycle diameter of 10 mm.

Take `CN[C@H](CC(C)C)C(=O)N[C@H]1C(=O)N[C@@H](CC(N)=O)C(=O)N[C@H]2C(=O)N[C@H]3C(=O)N[C@H](C(=O)N[C@H](C(=O)O)c4cc(O)cc(O)c4-c4cc3ccc4O)[C@H](O)c3ccc(c(Cl)c3)Oc3cc2cc(c3O[C@@H]2O[C@H](CO)[C@@H](O)[C@H](O)[C@H]2O[C@H]2C[C@](C)(N)[C@H](O)[C@H](C)O2)Oc2ccc(cc2Cl)[C@H]1O` [vancomycin]: the Inhibition cycle diameter turned out to be 10 mm. `C[C@H]1[C@H](NC(=O)/C(=N\OC(C)(C)C(=O)O)c2csc(N)n2)C(=O)N1S(=O)(=O)O` [aztreonam]: the Inhibition cycle diameter was determined as 1 mm and the “resistance of the bacterium to the antibiotic” value (“resistance of the bacterium” below) is listed as “resistant”. In turn, `NC[C@H]1O[C@H](O[C@H]2[C@H](O)[C@@H](O[C@H]3O[C@H](CO)[C@@H](O)[C@H](N)[C@H]3O)[C@H](N)C[C@@H]2N)[C@H](O)[C@@H](O)[C@@H]1O` [kanamycin] had an Inhibition cycle diameter of 10 mm.

As for `O=C(O)c1cn(C2CC2)c2cc(N3CCNCC3)c(F)cc2c1=O` [ciprofloxacin], the Inhibition cycle diameter amounted to 2 mm and the “resistance of the bacterium” value is recorded as “resistant”.

Turning to `O=C1CN(/N=C/c2ccc([N+](=O)[O-])o2)C(=O)N1` [nitrofuration], the Inhibition cycle diameter was found to be 2 mm and the “resistance of the bacterium” value was “resistant”. `O=C(N[C@H](CO)[C@H](O)c1ccc([N+](=O)[O-])cc1)C(Cl)Cl` [chloramphenicol]: the Inhibition cycle diameter came out at 10 mm. Still for that read-out and setting: then neomycin, with 10 mm.

Take `CCn1cc(C(=O)O)c(=O)c2ccc(C)nc21` [nalidixic acid]: the Inhibition cycle diameter worked out at 1 mm and the “resistance of the bacterium” value is recorded as “resistant”.

On to `CN(C)[C@@H]1C(O)=C(C(N)=O)C(=O)[C@@]2(O)C(O)=C3C(=O)c4c(O)cccc4[C@@](C)(O)[C@H]3C[C@@H]12` [tetracycline], for which the Inhibition cycle diameter is on record as 10 mm. Consider `CO/N=C(\C(=O)N[C@@H]1C(=O)N2C(C(=O)[O-])=C(C[N+]3(C)CCCC3)CS[C@H]12)c1csc(N)n1` [cefeprime], for which the Inhibition cycle diameter is given as 1 mm and the “resistance of the bacterium” value was “resistant”. As for `CC1(C)S[C@@H]2[C@H](NC(=O)[C@H](N)c3ccccc3)C(=O)N2[C@H]1C(=O)O` [ampicilin A], the Inhibition cycle diameter was determined as 10 mm.

In the case of colistinsulfate, the Inhibition cycle diameter is reported as 2-3 mm and the “resistance of the bacterium” value was “resistant”. The compound `CCN1CCN(C(=O)N[C@@H](C(=O)N[C@@H]2C(=O)N3[C@@H]2SC(C)(C)[C@@H]3C(=O)O)c2ccccc2)C(=O)C1=O` [piperacillin] displayed an Inhibition cycle diameter of 10 mm. In the case of `CO/N=C(\C(=O)N[C@@H]1C(=O)N2C(C(=O)O)=C(COC(N)=O)CS[C@H]12)c1ccco1` [cefuroxime], the Inhibition cycle diameter came out at 1 mm and the “resistance of the bacterium” value is recorded as “resistant”. Compound `CC1(C)S[C@@H]2[C@H](NC(=O)[C@H](C(=O)O)c3ccsc3)C(=O)N2[C@H]1C(=O)O` [ticarcillin] displayed an Inhibition cycle diameter of 10 mm.

Regarding `Cc1cc(NS(=O)(=O)c2ccc(N)cc2)no1` [sulphamethoxazole], the Inhibition cycle diameter is recorded as 10 mm. Same read-out and setting: then `NC[C@H]1O[C@H](O[C@H]2[C@H](O)[C@@H](O[C@H]3O[C@H](CO)[C@@H](O)[C@H](N)[C@H]3O)[C@H](N)C[C@@H]2N)[C@H](N)C[C@@H]1O` [tobaramycin], with 10 mm; and `CO/N=C(\C(=O)N[C@@H]1C(=O)N2C(C(=O)O)=C(CSc3nc(=O)c(=O)[nH]n3C)CS[C@H]12)c1csc(N)n1` [ceftriaxone], with 10 mm. For `CCn1cc(C(=O)O)c(=O)c2cc(F)c(N3CCNCC3)cc21` [norfloxacin], the Inhibition cycle diameter worked out at 2 mm and the “resistance of the bacterium” value is “resistant”.

In the case of `COc1cc(Cc2cnc(N)nc2N)cc(OC)c1OC` [trimethoprime], the Inhibition cycle diameter worked out at 10 mm. The compound `CC1(C)S[C@@H]2[C@H](NC(=O)C(C(=O)O)c3ccccc3)C(=O)N2[C@H]1C(=O)O` (stereo partly shown) [carbencillin] displayed an Inhibition cycle diameter of 10 mm. Still for that read-out and setting: then `[H]/N=C(/N)N[C@H]1[C@H](O)[C@@H](O)[C@H](O[C@@H]2O[C@@H](C)[C@](O)(C=O)[C@H]2O[C@@H]2O[C@@H](CO)[C@H](O)[C@@H](O)[C@@H]2NC)[C@@H](N/C(N)=N\[H])[C@@H]1O` [streptomycin], with 10 mm. On to `C[C@@H](O)[C@H]1C(=O)N2C(C(=O)O)=C(S[C@@H]3CN[C@H](C(=O)N(C)C)C3)[C@H](C)[C@H]12` [meropenem], for which the Inhibition cycle diameter is listed as 1 mm and the “resistance of the bacterium” value is reported as “resistant”. Regarding polymyxin-B, the Inhibition cycle diameter worked out at 10 mm.

In the case of `C[C@@H](O)[C@H]1C(=O)N2C(C(=O)O)=C(SCCN=CN)C[C@H]12` [imipenem], the Inhibition cycle diameter is given as 2-3 mm. Still for that read-out and setting: the result for gentanicin G reads 10 mm. In the case of `CC(=O)OCC1=C(C(=O)O)N2C(=O)[C@@H](NC(=O)Cc3cccs3)[C@H]2SC1` [cephalothin], the Inhibition cycle diameter turned out to be 2 mm and the “resistance of the bacterium” value is “resistant”.

For another assay, the system named is spiroplasma. Kind of assay: Antagonistic test of the bacteria's specific compounds (synthetic compounds on spiroplasma in vitro). Type of assay: cell-based, Spiroplasma melliferum. The note with it: 1 milimolar, three days at 29° C. On the procedure:
After potential inhibitory compounds (4-Quinolinecarboxaldehyde and 5-Hydroxymethyl-2-furaldehyde) were identified in the active fraction extracts of the bacteria's supernatant, parallel synthetic compound were purchased (Sigma) and examined on spiroplasma in vitro: 1 ml of spiroplasma medium, 10 μl spiroplasma cells and 10 μl of each compound (final concentration of 1 milimolar) were incubated for three days at 29° C. […] Changes in the indicator color from red to yellow indicated spiroplasma growth.
As to `O=Cc1ccnc2ccccc12` [Quinolinecarboxaldehyde, 4-Quinolinecarboxaldehyde], the spiroplasma growth inhibition result is “able to inhibit”.

Regarding `O=Cc1ccc(CO)o1` [Hydroxymethyl-2-furaldehyde, 5-Hydroxymethyl-2-furaldehyde], the spiroplasma growth inhibition entry was “no inhibition”.
